Patent US20240140895A1, “NOVEL AROMATIC MOLECULES” (XENIOPRO GmbH, priority 2018, published 2024)

System: HeLa cells (human cervical adenocarcinoma cells)
Experiment: Proliferation assay (alamarBlue) with HeLa cells
Type: cell-based
Source text: The antiproliferative activities of compounds falling under formula (Ia), (Tb) and (Ic), respectively, were investigated on cells or cell lines originating from a disorder of the haematopoietic system, including the myeloid cell compartment and the lymphoid cell compartment (T-cells and B-cells), the neuroendocrine system, the cervix, the breast, the ovaries, the lung, the gastrointestinal tract, and the mucosal epithelium, as well as from the skin epithelium and from the muscle. To this end, HL-60 cells, NB-4 cells, HH cells, RPMI-8402 cells, TANOUE cells, TT cells, HeLa cells, MDA-MB-231 cells, FU-OV-1 cells, LOU-NH91 cells, 23132/87 cells, CAL-27 cells, BHY cells, SCC-25 cells, A-431 cells, human primary epidermal keratinocytes (HPEK), and C2C12 cells were seeded into 96-well plates suitable for fluorescence assays (CORNING #3598) at following initial cell numbers: 1000 cells per well for HL-60; 1000 cells per well for NB-4; 5000 cells per well for HH; 5000 cells per well for RPMI-8402; 1500 cells per well for TANOUE; 9000 cells per well for TT; 2000 cells per well for HeLa; 3000 cells per well for MDA-MB-231; 3000 cells per well for FU-OV-1; 4000 cells per well for LOU-NH91; 2000 cells per well for 23132/87; 2000 cells per well for CAL-27; 1500 cells per well for BHY; 1500 cells per well for SCC-25; 700 cells per well for A-431; 1000 cells per well for HPEK; 500 cells per well for C2-C12. […] The readout was taken with a multi-well plate-reader in the fluorescence mode with applying a filter for excitation at 560 nm (band width 10 nm) and for emission at 590 nm (band width 10 nm). […]
The assays were performed in duplicate or more replicates of independent single experiments each containing a six-fold replicate for every condition. For every individual plate, the measured fluorescence intensity values of the conditions with compound treatment were normalized against the corresponding equally weighted arithmetic mean of the fluorescence intensity values of the six DMSO treated control wells in order to obtain the relative values to a baseline level of 1.0. […]

Q: What does the source list for `Oc1ccc(C=Cc2cc(O)cc(O)c2)cc1` [RES, resveratrol, reference compound]?
A: Activity Range: weighted arithmetic mean (AVEw) of normalized fluorescence intensity relative to DMSO basis level 1.0 (compound at 20 μM): 0.9 ± 0.0; Activity Range: weighted arithmetic mean (AVEw) of normalized fluorescence intensity relative to DMSO basis level 1.0 (control at 40 μM): 0.4 ± 0.1
